Data as given in US10023614B2, “Oral peptide inhibitors of interleukin-23 receptor and their use to treat inflammatory bowel diseases” (Protagonist Therapeutics, Inc., priority 2014, dated 2018).

Tested on: Sprague Dawley rats, DSS-induced colitis
Assay: Rat colitis model: 9 days of 3% DSS-containing drinking water
Type: in vivo
Details: 100 mg/kg PO, QD; compared to DSS alone, from Day 5
Procedure: In this model, colitis was induced in SD rats by 9 days of ad lib exposure to drinking water containing 3% DSS. The disease activity index (DAI) score and ratio of colon weight:colon length were compared between three study groups (n=6 rats/group): vehicle, 3% DSS, and 3% DSS with positive control (sulfasalazine administered at 100 mg/kg PO, QD).
Acute colitis was induced by feeding female Sprague Dawley rats with 3% (wt/vol) DSS dissolved in drinking water. […] A neutralizing anti-IL-23p19 antibody was used as a comparator, and was administered intraperitoneally at 4 mg/kg on the same day and fifth day after starting DSS. To quantify colitis with clinical activity, disease activity index (DAI) was determined daily for each animal as an average of three parameters: body weight change (scale 0-3), stool consistency (scale 0-3) and hemoccult blood (scale 0-3), as shown in Table 15. At necropsy, the entire colon was removed from the cecum to the rectum. The colon was measured for length, flushed with PBS to remove feces, weighed, and opened longitudinally to determine macroscopic score.
Statistical analysis for significance was compared to the vehicle treated group and was determined using Student's T-test (GraphPad Prism). Differences were noted as significant *p<0.05, **p<0.01, ***p<0.001, ****p<0.0001.

SMILES: O=C(O)c1cc(/N=N/c2ccc(S(=O)(=O)Nc3ccccn3)cc2)ccc1O [sulfasalazine]
- disease activity index (DAI) score: attenuated the disease score
